# Assay results from patent US20060063759A1, “Tricyclic steroid hormone nuclear receptor modulators” (priority 2002, published 2006).
# Assays:
# [1] = target: T1, human MR (Homo sapiens, UniProt P08235); assay: Mineralocorticoid Receptor Binding Assay ([3H]-aldosterone); details: [3H]-aldosterone binding, human MR expressed in Sf9 cells; read-out: MR Ki
# T1 construct: The full length human MR gene is cloned from a human kidney or human brain cDNA library; His tag from the pAcHLT vector (own knowledge); made in house; host or cells: Sf9 insect cells (baculovirus, pAcHLT transfer vector)
# T1 sequence (P08235 1-984): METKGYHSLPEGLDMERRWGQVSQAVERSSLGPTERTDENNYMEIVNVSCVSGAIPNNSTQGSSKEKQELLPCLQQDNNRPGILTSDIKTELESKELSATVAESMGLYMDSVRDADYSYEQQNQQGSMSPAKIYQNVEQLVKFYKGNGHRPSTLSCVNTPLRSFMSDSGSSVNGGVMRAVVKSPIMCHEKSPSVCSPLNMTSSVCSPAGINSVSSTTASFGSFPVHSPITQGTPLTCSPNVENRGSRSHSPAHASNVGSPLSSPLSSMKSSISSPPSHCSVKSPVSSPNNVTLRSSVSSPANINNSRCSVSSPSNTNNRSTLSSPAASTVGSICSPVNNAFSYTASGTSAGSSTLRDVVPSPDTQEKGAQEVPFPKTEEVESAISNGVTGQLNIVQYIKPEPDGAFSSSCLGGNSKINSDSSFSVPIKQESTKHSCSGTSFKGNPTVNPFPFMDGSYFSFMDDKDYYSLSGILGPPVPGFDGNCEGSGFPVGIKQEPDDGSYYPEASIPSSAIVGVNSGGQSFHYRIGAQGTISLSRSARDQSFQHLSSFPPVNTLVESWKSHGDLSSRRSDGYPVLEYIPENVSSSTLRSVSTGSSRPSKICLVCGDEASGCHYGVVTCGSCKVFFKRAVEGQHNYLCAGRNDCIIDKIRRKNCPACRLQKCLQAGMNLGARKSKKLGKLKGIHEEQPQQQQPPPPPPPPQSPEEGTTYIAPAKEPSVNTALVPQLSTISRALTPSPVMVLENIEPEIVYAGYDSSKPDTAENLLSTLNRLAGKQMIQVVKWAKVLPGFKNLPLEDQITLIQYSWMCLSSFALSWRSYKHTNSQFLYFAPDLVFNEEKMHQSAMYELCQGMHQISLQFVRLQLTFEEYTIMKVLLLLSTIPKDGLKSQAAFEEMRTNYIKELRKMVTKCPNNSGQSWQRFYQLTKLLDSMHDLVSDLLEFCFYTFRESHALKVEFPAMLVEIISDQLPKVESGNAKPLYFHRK
# How it was run: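 Receptor source: freeze-thaw lysate of baculovirus-infected Sf9 cells carrying full-length human MR, 20-25 μg protein. Incubation ~16 h at 4 °C with shaking, pH 7.5 buffer containing 30 mM sodium molybdate and 10% glycerol.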
# [2] = target: T2, glucocorticoid receptor (Homo sapiens, UniProt P04150); assay: Glucocorticoid Receptor Binding Assay ([3H]-dexamethasone, A549 cell extract); details: [3H]-dexamethasone binding, read-out: GR Ki
# T2 construct: containing 50-200 ug of A549 cell extract and 1.86 nM [^3H]-dexamethasone; host or cells: A549 human lung epithelial cells (sonicated cell extract)
# T2 sequence (P04150 1-777): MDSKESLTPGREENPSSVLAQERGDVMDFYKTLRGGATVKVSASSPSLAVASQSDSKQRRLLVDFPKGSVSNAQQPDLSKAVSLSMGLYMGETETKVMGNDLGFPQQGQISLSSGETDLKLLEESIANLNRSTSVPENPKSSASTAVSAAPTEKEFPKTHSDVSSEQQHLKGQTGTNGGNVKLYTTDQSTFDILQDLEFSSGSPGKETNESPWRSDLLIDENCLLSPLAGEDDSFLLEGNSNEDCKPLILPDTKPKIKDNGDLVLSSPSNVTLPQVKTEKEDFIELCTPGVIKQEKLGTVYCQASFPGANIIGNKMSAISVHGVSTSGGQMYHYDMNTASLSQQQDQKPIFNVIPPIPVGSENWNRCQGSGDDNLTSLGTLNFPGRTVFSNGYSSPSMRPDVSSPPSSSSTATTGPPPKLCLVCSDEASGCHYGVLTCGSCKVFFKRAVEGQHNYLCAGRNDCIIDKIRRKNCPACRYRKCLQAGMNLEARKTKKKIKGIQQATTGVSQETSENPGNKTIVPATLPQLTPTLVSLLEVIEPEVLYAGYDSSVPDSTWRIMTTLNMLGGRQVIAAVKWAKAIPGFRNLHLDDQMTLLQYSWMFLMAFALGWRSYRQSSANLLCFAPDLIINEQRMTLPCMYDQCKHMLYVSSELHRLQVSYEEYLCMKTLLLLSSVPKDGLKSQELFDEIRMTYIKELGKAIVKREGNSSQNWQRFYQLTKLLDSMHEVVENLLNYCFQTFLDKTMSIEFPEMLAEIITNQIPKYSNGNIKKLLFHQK
# How it was run: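 Displacement of [3H]-dexamethasone (1.86 nM) from glucocorticoid receptor in sonicated A549 lung epithelial cell extracts, 16 h at 4 °C, pH 7.2 molybdate-containing buffer. Bound radioactivity was scintillation-counted after charcoal/dextran stripping of free ligand.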
# [3] = in combination with standard CHF therapy, patients suffering from advanced CHF; cited from earlier work
SMILES,Ki [1],Ki [2],melting point,reduced cardiac related mortality [3],reduced frequency of hospitalization [3]
"Oc1cccc(CC2c3ccccc3CCc3ccccc32)c1 [Example 126, 3-(10,11-Dihydro-5H-dibenzo[a,d]cyclohepten-5-ylmethyl)-phenol]",< 500 nM,< 500 nM,76.6 °C,–,–
"Oc1cccc(C=C2c3ccccc3CCc3ccccc32)c1F [Example 153, 3-(10,11-Dihydro-dibenzo[a,d]cyclohepten-5-ylidenemethyl)-2-fluoro-phenol]",< 500 nM,< 1000 nM,143.2 °C,–,–
"CS(=O)(=O)Nc1cccc(C=C2c3ccc(Cl)cc3CCc3cc(Cl)ccc32)c1 [Example 182, N-[3-(2,8-Dichloro-10,11-dihydro-dibenzo[a,d]cyclohepten-5-ylidenemethyl)-phenyl]-methanesulfonamide]",< 500 nM,< 500 nM,182.4 °C,–,–
"COc1ccc2c(c1)CCc1cc(OC)ccc1C2=Cc1cccc(NS(C)(=O)=O)c1 [Example 191, N-[3-(2,8-Dimethoxy-10,11-dihydro-dibenzo[a,d]cyclohepten-5-ylidenemethyl)-phenyl]-methanesulfonamide]",< 500 nM,< 500 nM,109.6 °C,–,–
"Oc1cccc(C=C2c3cccc(F)c3CCc3c(F)cccc32)c1 [Example 202, 3-(1,9-Difluoro-10,11-dihydro-dibenzo[a,d]cyclohepten-5-ylidenemethyl)-phenol]",< 500 nM,< 1000 nM,129.5 °C,–,–
"Oc1cccc(/C=C2/c3ccc(Cl)cc3CCc3cccnc32)c1 [Example 244, 3-(8-Chloro-5,6-dihydro-benzo[5,6]cyclohepta[1,2-b]pyridin-11-ylidenemethyl)-phenol]",< 500 nM,< 10000 nM,221.2 °C,–,–
"Oc1cccc(/C=C2\c3ccc(Cl)cc3CCc3cccnc32)c1 [Example 245, 3-(8-Chloro-5,6-dihydro-benzo[5,6]cyclohepta[1,2-b]pyridin-11-ylidenemethyl)-phenol]",< 500 nM,< 10000 nM,> 250 °C,–,–
"CS(=O)(=O)Nc1cccc(C=C2c3ccccc3C3C(c4ccccc42)C3(Cl)Cl)c1 (centres unmarked) [Example 259, N-[3-(8,8-Dichloro-4-ylidenemethyl-2,3,5,6-dibenzobicyclo[5.1.0]octane)-phenyl]-methanesulfonamide]",< 500 nM,< 10000 nM,199 to 201 °C,–,–
"O=c1[nH]c2ccc(C=C3c4ccc(F)cc4CCc4cc(F)ccc43)cc2[nH]1 [Example 437, 5-(2,8-difluoro-10,11-dihydro-dibenzo[a,d]cyclohepten-5-ylidenemethyl)-1,3-dihydro-benzoimidazol-2-one]",< 500 nM,< 1000 nM,257 °C,–,–
CC(=O)S[C@@H]1CC2=CC(=O)CC[C@]2(C)[C@H]2CC[C@@]3(C)[C@@H](CC[C@@]34CCC(=O)O4)[C@H]12 [spironolactone],–,–,–,30%,35%
